From patent US20170007663A1, “METHODS AND COMPOSITIONS FOR TREATING AND […] DYSFUNCTION” (CORNELL UNIVERSITY, priority 2013, published 2017)
Non-standard residues stand in square brackets, D forms with d. No end group written: not given here.

How the values were obtained:
[1] = test system: cerebral metabolic rate of oxygen (CMRO); assay: Burst suppression model (Ching et al.) for cerebral metabolic rate of oxygen
Description: A burst suppression model, as described in Ching et al., PNAS, 109(8): 3095-3100, (2012), will be used to determine the effect of D-Arg-2′,6′-Dmt-Lys-Phe-NH2 on CMRO. A range of 10^−9 to 10^−6 molar concentration of D-Arg-2′,6′-Dmt-Lys-Phe-NH2 will be assayed and compared to untreated and control peptide assays.

mu-opioid receptor = mu-opioid receptor (Homo sapiens, UniProt P35372); conditions: stated without a described test; cited from earlier work
Sequence of mu-opioid receptor (P35372 whole entry, species assumed): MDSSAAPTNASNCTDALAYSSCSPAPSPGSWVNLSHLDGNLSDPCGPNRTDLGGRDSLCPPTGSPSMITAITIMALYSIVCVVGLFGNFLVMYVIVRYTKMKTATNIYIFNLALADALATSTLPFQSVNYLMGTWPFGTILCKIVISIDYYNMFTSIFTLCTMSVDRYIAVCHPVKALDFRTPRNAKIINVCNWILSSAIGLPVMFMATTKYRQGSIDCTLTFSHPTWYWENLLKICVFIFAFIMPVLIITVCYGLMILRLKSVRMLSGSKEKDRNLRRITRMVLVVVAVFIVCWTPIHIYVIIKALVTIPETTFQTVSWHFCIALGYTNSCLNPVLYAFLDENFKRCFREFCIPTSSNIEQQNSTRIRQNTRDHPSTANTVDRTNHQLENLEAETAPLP

[2] = test system: several mammalian cell types; conditions: cited from earlier work

| Substance | CMRO ([1]; 10^−9 to 10^−6 molar, compared to untreated and control peptide assays) | cerebral metabolism / neuronal cellular and network function ([1]; burst suppression model, FIG. 1) | mu-opioid receptor agonist activity (mu-opioid receptor) | penetration of the plasma membrane [2] |
| --- | --- | --- | --- | --- |
| D-Arg-2′,6′-Dmt-Lys-Phe-NH2 | increase in CMRO | increase in cerebral metabolism and/or a restoration of neuronal cellular and network function | does not have mu-opioid receptor agonist activity |  |
| 2′,6′-Dmt-D-Arg-Phe-Lys-NH2 |  |  |  | readily penetrates the plasma membrane of several mammalian cell types in an energy-independent manner |
| Tyr-D-Arg-Phe-Lys-NH2 |  |  | has mu-opioid receptor agonist activity |  |
| F[dR]FK-NH2 |  |  | does not have mu-opioid receptor agonist activity |  |
